Laboratory results from US8637040B2, “Genus-wide chlamydial peptide vaccine antigens” (priority 2008, dated 2014).

Legend:
chlamydia = experiment: Gross anatomical observation of genital tract inflammation after challenge; assay type: in vivo, mouse; settings: female mice primed and boosted twice SC, necropsy ~28 days post-challenge, vs adjuvant-only control
Text: FIG. 15A-15C is a set of three photographs showing the gross morphology of tissues of the female reproductive tract of mice immunized and then challenged 28 days earlier with Pep4 or Pep7. Mice had been primed and boosted twice SC, as above, and were challenged with chlamydia 2 weeks later, rechallenged and sacrificed 4 weeks after re-challenge. Inflamed genital tracts outlined in dashed lines.
Genital tracts were exposed at necropsy ˜28 days post-challenge to score inflammatory changes (and then removed for histological analysis). […] Representative examples for recipients of Peptides 4 and 7 are shown in the center and right panels, respectively. Yellow arrows point to uterine horns (which are further demarcated with dashed lines). It is evident that the peptide immunogens reduced the gross pathology of the genital tract even weeks after challenge. This has been reproduced in a second experiment in which control mice received an irrelevant peptide instead of Peptides 4 or 7. Based on what is known in the art from other contexts, the histopathological results are expected to be consistent with these gross anatomical observations.

human sera = experiment: ELISA of human serum samples on 4 peptides (Example XI); assay type: binding
Procedure: (§1) Blood was collected prior to immunizations and prior to the two boosts. Sera were tested in ELISA. The ELISA method used in the present examples, in which many if not all the parameters and conditions may be varied or modified in ways that are completely conventional in the art, is described below. • 1. 96 well plates (Immulon HBX4) were coated with 50 μl of diluted antigen (peptides at 1 μg/well made in carbonate buffer) and incubated overnight at 4° C. • 2. Unbound antigen was removed by flicking the contents of the plate into a sink without further washing. • 3. Non-specific binding was blocked or prevented by adding 300 μL/well of 4% BSA/PBS-Tween 20 (0.05%). This was allowed to incubate for 2 hour at room temperature. • 4. The plates were washed once with PBS-Tween 20 (0.05%) and 50 μl of primary antibody was added per well at appropriate dilutions. When using serum, the starting dilution was 1:40 and was further diluted by doublings to 1:80, 1:160, and 1:320 (or higher as desired). Plates were incubated for 1 hour at 37° C. • 5. Plates were washed three times with PBS-Tween (0.05%) as above and 100 μl of secondary antibody was added per well at appropriate dilutions. For alkaline phosphatase-conjugated goat anti-mouse IgG-AP, a dilution of 1:500 was used here. Plates were incubated for 1 hour at 37° C. • 6. Plates were again washed three times as above and 200 μl of substrate solution for Alkaline phosphatase (p-nitro phenyl phosphate or pNPP) was added at a concentration of 5 mg/ml. The color reaction was read in an automated microplate reader at a frequency of […] and the absorbance (or optical density) was registered (referred to as A405 or OD405) Several important observations were made in these tests against the 4 peptides: (a) all 4 peptides were immunogenic and induced increasing anti-peptide responses with subsequent boosts in all mice (except in one non-responder) (FIG. 3). […] See also FIG. 16A-16B
Human sera were tested by PCR for expression of several chlamydial genes, by IHC against C. trachomatis-infected cells and by ELISA against several of the peptides of the present invention. Results are shown in Table 7 (below) which include results from PCR-studies for presence of DNA encoding the chlamydial Major Outer Membrane Protein (MOMP) in human peripheral blood mononuclear cells (PBMC) (which are primarily lymphocytes and monocytes) and cervical swabs
Also shown is IHC staining of C. trachomatis-infected human HEp2 cells and binding of antibodies in the patient samples to four peptides of the present invention (Pep4, 7, 8, and 10) in ELISA.

Pep4, Pep7, Pep8, Pep10 = experiment: Cross-reactivity between peptides in ELISA; assay type: binding; settings: sera of mice immunized with a single peptide
Procedure: as §1
Both of these are category #1 peptides. […] That supports the notion that CDR1 and CDR3 of mAb2 are antigenically distinct.

Sequence: AFPQFRSATLLL [Pep4]
- gross inflammation / pathology of the genital tract (chlamydia): not nearly as inflamed
- ELISA 1:40 on 4 peptides Scale: 1+-3+ (human sera; human serum sample # 1): 2
- ELISA 1:40 on 4 peptides Scale: 1+-3+ (human sera; human serum sample # 2): 0.75
- ELISA 1:40 on 4 peptides Scale: 1+-3+ (human sera; human serum sample # 3): 2.5
- ELISA 1:40 on 4 peptides Scale: 1+-3+ (human sera; human serum sample # 5): 2
- ELISA 1:40 on 4 peptides Scale: 1+-3+ (human sera; human serum sample # 7): 0.75
- ELISA 1:40 on 4 peptides Scale: 1+-3+ (human sera; human serum sample # 8): 3
- ELISA 1:40 on 4 peptides Scale: 1+-3+ (human sera; human serum sample # 9): 3
- ELISA 1:40 on 4 peptides Scale: 1+-3+ (human sera; human serum sample # 10): 3
- ELISA 1:40 on 4 peptides Scale: 1+-3+ (human sera; human serum sample # 12): 2
- ELISA 1:40 on 4 peptides Scale: 1+-3+ (human sera; human serum sample # 13): 2
- ELISA 1:40 on 4 peptides Scale: 1+-3+ (human sera; human serum sample # 16): 2
- ELISA 1:40 on 4 peptides Scale: 1+-3+ (human sera; human serum sample # 18): 2.5
- ELISA 1:40 on 4 peptides Scale: 1+-3+ (human sera; human serum sample # 21): 1.5
- ELISA 1:40 on 4 peptides Scale: 1+-3+ (human sera; human serum sample # 22): 1.5
- ELISA 1:40 on 4 peptides Scale: 1+-3+ (human sera; human serum sample # 23): 2
- ELISA 1:40 on 4 peptides Scale: 1+-3+ (human sera; human serum sample # 24): 3
- ELISA 1:40 on 4 peptides Scale: 1+-3+ (human sera; human serum sample # 26): 2
- cross-reactivity of raised Abs with Pep7 (ELISA) (Pep4, Pep7, Pep8, Pep10): cross reacted
